{
  "source": "patent US6066339A",
  "about": "(priority 1997, dated 2000)",
  "origin": "cited, not measured here",
  "test_system": "μ-opioid",
  "conditions": "animal experiments",
  "data": [
    {"smiles": "CN1CC[C@]23c4c5ccc(O)c4O[C@H]2[C@@H](O[C@@H]2O[C@H](C(=O)O)[C@@H](O)[C@H](O)[C@H]2O)C=C[C@H]3[C@H]1C5", "note": "[morphine-6-glucuronide]", "values": [
      {"measurement": "μ-opioid agonism", "result": "potent μ-opioid agonist"}
    ]}
  ]
}
